Source: patent US8703106B2, “Chlorine dioxide treatment for biological tissue” (priority 2009, dated 2014)

Assays:
[1] = tested on: Pseudomonas aeruginosa (PA) biofilm; experiment: Biofilm kill on ceramic disks, clean system (Example 1); format: cell-based; conditions: for Log Reduction in Organism Count: PA
Procedure: (§1) A series of experiments were conducted to estimate the dosage of chlorine dioxide needed to kill bacterial biofilms consisting of Pseudomonas acruginosa (PA), methicillin resistant Staphylococcus aureus (MRSA), or a combination of both.
(§2) Bacterial biofilms were grown for between 7 and 10 days on non-porous ceramic disks in a spinning disk biofilm reactor. The reactors were inoculated with PA, MRSA, or a mixture of MRSA and PA bacteria to produce PA, MRSA, or mixed PA/MRSA biofilms respectively.
(§3) Chlorine dioxide solutions were produced at different nominal concentrations using ASEPTROL S-Tab10 tablets, and the exact concentrations were then measured using a Hach Model 2400 UV/Vis spectrophotometer in accordance with the manufacturer's instructions. Pairs of biofilm-containing disks were immersed for different times in solutions of different chlorine dioxide concentrations, neutralized with dilute sodium thiosul fate solution, and then plated to determine the number of surviving bacteria on each disk. Two untreated disks were also exposed to neutralizing solution and plated to determine the starting bacterial counts. In all tests, the baseline bacterial counts were in the range of 10^7 to 10^7.5 colony-forming units per disk (cfu/disk). A one log reduction refers to reducing the cfu/disk by one order of magnitude, e.g., a reduction from 10^7.1 cfu/disk to 10^6.1 cfu/disk. Accordingly, a substantially complete kill is achieved in the example if the log reduction of bacteria is about 7 to 7.5.
(§4) The results are presented in terms of log reduction of the different bacterial organisms. In the case of mixed PA/MRSA biofilms, results are given as total bacteria.

[2] = tested on: methicillin resistant Staphylococcus aureus (MRSA) biofilm; experiment: as above; format: cell-based; conditions: for Log Reduction in Organism Count: MRSA
Procedure: as §1, §2, §3, §4

mixed PA/MRSA biofilm = experiment: as above; format: cell-based, Pseudomonas aeruginosa and Staphylococcus aureus; conditions: for Log Reduction in Organism Count: MRSA + PA, total bacteria
Procedure: as §1, §2, §3, §4

[3] = tested on: coagulase-negative Staphylococci in wounds; experiment: Pig infected wound model, delivery methods (Example 4); format: in vivo
Description: The test animal was a pig (n=1). Pigs are commonly used as models for wound healing in part because pig skin shares many characteristics with human skin. The porcine model is considered to be an excellent tool for the evaluation of candidate agents intended for use in human wounds.
On Day 0, the pig was anesthetized and sixteen […] full-thickness wounds (eight per side) were created using a custom designed 2-cm trephine. Each wound was 2-cm in diameter. An epinephrine solution (1:10,000 dilution) was applied to the wounds on gauze sponges until hemostasis was complete (approximately 10 minutes). Each wound was then infected with a bacterial inoculum.
Three different bacteria, Pseudomonas aeruginosa, Fusobacterium sp., and coagulase-negative Staphylococci (CNS), were cultured and used to prepare inoculums for the wounds. On the morning of surgery, the bacterial cultures were washed with sterile saline and resuspended in saline to a final density of approximately 10^7 CFU/mL. This bacterial suspension was used to inoculate each wound.
Wounds were dressed with sterile Telfa gauze, and the infections allowed to mature to establish a bacterial biofilm condition. Telfa dressings were moistened with saline: the excess saline was removed by squeezing the Telfa dressings. The dressing was then secured in place with Transpore tape (3M, St. Paul, Minn.), As a secondary dressing, a blue absorbent pad was used to cover all of the wounds. The absorbent layer of the blue pad was placed against the skin for the first few days. If wounds looked too dry, the blue pad was changed with the occlusive side against the skin. A layer of a layer of elastic bandage was wrapped over the blue pad to prevent movement of the dressings underneath. All wound dressing were changed on Day 1.
On Day 2, wounds were treated with a chlorine dioxide composition using different delivery methods. In brief, wounds A2-A4 were treated with continuous irrigation. Treatment for wounds B2-B4 and C2-C4 was multiple, substantially contiguous episodes of contact with a substantially non-cytotoxic chlorine dioxide gel composition. Wounds D2-D4 were treated with intermittent irrigation using a manual irrigation device. A1, B1 and D1 were controls and were not treated with chlorine dioxide. C1 was manually treated with a chlorine dioxide solution.
Wounds A2-A4: Each wound was individually covered with an irrigation device, each having an inlet, port to supply a chlorine dioxide solution and an outlet port for egress of the chlorine, dioxide solution. […]
The pump was activated to achieve an initial flow rate of approximately 80-82 ml mm through each of the three irrigation chambers. Chlorine dioxide concentrations were measured at the outlets using a UV spectrophotometer. […]

bacteria in wounds = experiment: Pig wound model, chlorine dioxide with sonication (Example 5); format: in vivo; conditions: 400 ppm solution, 8 x 15 min, plus three 4 min sonications at about 20 kHz, 40% duty cycle
Procedure: An experiment was performed to assess the efficacy of a combination therapy of chlorine dioxide administration and sonication on bacterial levels in wounds. The animal model was a pig. Sixteen wounds were introduced and inoculated with bacteria as described in Example 6. On Day 2, treatment was administered. There were control wounds that were not treated with either chlorine dioxide or ultrasound. Test wounds were treated with ultrasonic energy for 4 minutes, using a frequency of about 20 kHz, a 40% duty cycle and a range of power intensities up to 3.5 W/cm^2; each test wound received a total of three sonication treatments. Test wounds were treated with a 400 ppm chlorine dioxide solution applied to each wound in 8 separate, contiguous applications of 15 minutes duration each (total of 120 minutes of exposure to 400 ppm chlorine dioxide) and each application used a fresh specimen of the solution. Each treated wound received a total of three×4 minute sonication over the course of the 2 hours of chlorine dioxide treatment.
Wounds were biopsied after treatment as described in Example 4.

[O][Cl+][O-] [ClO2, chlorine dioxide]
dosage achieving a kill of about 5 orders of magnitude (5 log) ([1]; PA biofilm, clean system (Sample 7)): greater than 200 ppm-min
Log Reduction in Organism Count ([1]; Sample 6, 0.5 min, 200 ppm ClO2, 100 ppm-min): 5.9 log
Log Reduction in Organism Count ([1]; Sample 7, 5.0 min, 43 ppm ClO2, […]-min): 5.7 log
Log Reduction in Organism Count ([1]; Sample 8, 5.0 min, 187 ppm ClO2, 935 ppm-min): 7.5 log
Log Reduction in Organism Count ([1]; Sample 9, 10.0 min, 37 ppm ClO2, 370 ppm-min): 7.5 log
Log Reduction in Organism Count ([1]; Sample 10, 50.0 min, 35 ppm ClO2, 1750 ppm-min): 7.5 log
Log Reduction in Organism Count ([1]; Sample 11, 50.0 min, 166 ppm ClO2, 8300 ppm-min): 7.5 log
dosage achieving a kill of about 5 orders of magnitude (5 log) ([2]; MRSA biofilm, clean system (Sample 1)): greater than 200 ppm-min
Log Reduction in Organism Count ([2]; Sample 1, 1.0 min, 208 ppm ClO2, 208 ppm-min): 5.5 log
Log Reduction in Organism Count ([2]; Sample 2, 5.0 min, 204 ppm ClO2, 1020 ppm-min): 7.1 log
Log Reduction in Organism Count ([2]; Sample 3 (second line), 30.0 min, 40 ppm ClO2, 1200 ppm-min): 5.1 log
Log Reduction in Organism Count ([2]; Sample 3, 10.0 min, 45 ppm ClO2, 450 ppm-min): 5.5 log
Log Reduction in Organism Count ([2]; Sample 4, 30.0 min, 175 ppm ClO2, 5250 ppm-min): 7.1 log
Log Reduction in Organism Count (mixed PA/MRSA biofilm; Sample 12, 10.0 min, 52 ppm ClO2, 520 ppm-min): 5.5 log
Log Reduction in Organism Count (mixed PA/MRSA biofilm; Sample 13, 30.0 min, 52 ppm ClO2, 1560 ppm-min): 7.4 log
Log Reduction in Organism Count (mixed PA/MRSA biofilm; Sample 14, 1.0 min, 181 ppm ClO2, 181 ppm-min): 5.1 log
Log Reduction in Organism Count (mixed PA/MRSA biofilm; Sample 15, 5.0 min, 160 ppm ClO2, 800 ppm-min): 7.4 log
Log Reduction in Organism Count (mixed PA/MRSA biofilm; Sample 16, 30.0 min, 160 ppm ClO2, 4800 ppm-min): 7.4 log
dosage achieving a kill of about 5 orders of magnitude (5 log) (mixed PA/MRSA biofilm; mixed PA/MRSA biofilm, clean system (Sample 12)): greater than 200 ppm-min
levels of Staphylococcus aureus ([3]; pig wounds, improved irrigation methods and gel formulation): moderately lowered
reduction of coagulase-negative Staph ([3]; pig, Day 2, 400 ppm chlorine dioxide over two hours, versus moist controls): 1-2 logs
bacterial counts in test wounds (bacteria in wounds; as a function of power intensity up to 3.5 W/cm^2): decrease significantly (multiple log reductions)
bacterial kill in test wounds (bacteria in wounds; at 3.5 W/cm^2): substantially complete log kill
